{"source": "patent US20250352609A1", "about": "“Methods For Treating Alzheimer's Disease or Dementia Using A Calcilytic And A Calcimimetic” (The United States Government As Represented By The …, priority 2024, published 2025)", "key": {"18 MOA male C57/B6 mice": {"system": "18 MOA male C57/B6 mice", "assay": "Y-maze test, aging-induced cognitive declines, Etelcalcetide", "assay_type": "in vivo", "conditions": "18 MOA vs 5 MOA male C57/B6 mice, 8 weeks daily (5 days/week) injections, 500 μg/kg", "method": "Spont Alt indices of Y-maze test in 5 and 18 MOA male C57/B6 mice after 8 weeks of daily (5 days/week) injections of vehicle, 500 μg/kg Etelcalcetide (Etel) and/or 12 μmole/kg NPS-2143 (2143). Mean±SE, p values by one-way ANOVA, n=6-12 mice/group.\n(§1) Based on the outcomes of the above genetically manipulated mice, it was tested whether pharmacological manipulations of serum PTH levels with blood-brain barrier (BBB)-impermeable calcimimetics (e.g., etelcalcetide) that activate CaSR homodimers in PTCs to suppress PTH secretion can prevent the cognitive declines in the aging and APP^NL-G-F/NL-G-F mice."}, "APP^NL-G-F mice": {"system": "APP^NL-G-F mice", "assay": "Y-maze test, cognitive declines in EOAD mice, Etelcalcetide", "assay_type": "in vivo", "conditions": "APP^NL-G-F mice at 10 MOA, daily (5 days/week) injections 500 μg/kg beginning at 6 MOA", "method": "Spont Alt indices of Y-maze test in 10 MOA mice carrying humanized Ab sequence without (bAb-KI) or with (APP^NLGF) 4 mutations identified from EOAD patients after daily (5 days/week) injections of vehicle, 500 μg/kg Etelcalcetide (Etel) and/or 12 μmole/kg NPS-2143 (2143) beginning at 6 MOA. Mean±SE, p values by one-way ANOVA, n=19-37 mixed male and female mice/group.\nas §1"}, "serum PTH (sPTH)": {"system": "serum PTH (sPTH)", "assay": "Serum PTH in aging-associated HPT mice", "assay_type": "in vivo", "conditions": "aged male C57/B6 mice; aducanumab 40 mg/kg/week by twice weekly injections for 5 weeks; Etelcalcetide 0.3 mg/kg once daily"}, "Tau phosphorylation": {"system": "Tau phosphorylation", "assay": "Aβ1-42-stimulated PTH secretion in vitro with Tau phosphorylation inhibitor", "assay_type": "cell-based", "conditions": "inhibition of Tau phosphorylation", "excerpt": "In support of this finding, inhibition of Tau phosphorylation by a staurosporine analogue (K252a) blocked the ability of Aβ1-42 to stimulate PTH secretion in vitro, and the increased tonic PTH hypersecretion seen in mice with PTC-targeted Vdr gene KO (^PTCVdr^Dflox/Dflox), mimicking vitamin D deficiency, was reversed by a concurrent ablation of App (^PTCVdr^Dflox/Dflox; App^Dflox/Dflox) or the TAU-encoding Mapt (^PTCVdr^Dflox/Dflox; Mapt−/−) gene."}, "murine PTGs": {"system": "murine PTGs", "assay": "Ex vivo tonic PTH secretion from cultured murine PTGs", "assay_type": "cell-based", "method": "Ex vivo assessments of the impact of different concentrations (0.3 to 1000 nM) Aβ1-42 on PTH secretion from intact PTGs cultured from the 3-month-old mice with homozygous parathyroid-specific App gene KO (square); homozygous parathyroid-specific App and Casr double gene KO (up triangle); homozygous parathyroid-specific App and Gabbr1 double gene KO (down triangle); or homozygous parathyroid-specific App, Casr, and Gabbr1 triple gene KO (diamond). Mean±s.e.m. of n mice as indicated in the plots.\n(§2) This stimulatory effect was absent in murine PTGs lacking either CaSR or GABAB1R."}, "human PTGs": {"system": "human PTGs", "assay": "Tonic PTH secretion from cultured human PTGs", "assay_type": "cell-based", "conditions": "exogenous Aβ1-42 0.3 to 1000 nM, concentration-dependent, vs control", "excerpt": "as §2"}, "[1]": {"system": "iPSC-derived neurons co-expressing CASR and GABAB1R", "assay": "cAMP production in iPSC-derived neurons challenged by Aβ42", "assay_type": "cell-based", "conditions": "iPSC-derived neurons perfused with Aβ42", "excerpt": "Averaged time courses of CAMP in normal iPSC-derived neurons natively expressing CaSR and GABAB1R and challenged by Ab1-42. Cells were continuously perfused with buffer without or with Aβ42 (horizontal bar). Data represent the mean value s.e.m. of n=20 cells and N=3 experiments.\nGiven that HPT can cause chronic inflammation (Cheng, S. P., et al. Mediators Inflamm 2014, 709024 (2014); çrakolu, M. F. et al. ENT Updates 11, 115-119 (2021); and Almqvist, E. G., et al. Scandinavian journal of clinical and laboratory investigation 71, 139-144 (2011)) and that CaSR expression increases in inflammatory responses in pathological conditions (Jager, E. et al. Nat Commun 11, 4243 (2020); and Iamartino, L. & Brandi, M. L. Front Physiol 13, 1059369 (2022)), including in AD, through interleukin (IL)-1β (IL1β) and IL-6-induced NFkb cis-acting response of CASR gene (Canaff, L. & Hendy, G. N. J Biol Chem 280, 14177-14188 (2005); and Hendy, G. N. & Canaff, Semin Cell Dev Biol 49, 37-43 (2016)), HPT-induced inflammation could be a leading cause for CaSR upregulation as well as for Aβ buildup in AD (Kinney, J. W. et al. Alzheimers Dement (N Y) 4, 575-590 (2018); Ilievski, V. et al. PloS one 13, e0204941 (2018); and Yamamoto, M. et al. Am J Pathol 170, 680-692 (2007))."}}, "data": [{"compound": "CC(=O)N[C@H](CSSC[C@H](N)C(=O)O)C(=O)N[C@H](C)C(=O)N[C@H](CCCNC(=N)N)C(=O)N[C@H](CCCNC(=N)N)C(=O)N[C@H](CCCNC(=N)N)C(=O)N[C@H](C)C(=O)N[C@H](CCCNC(=N)N)C(N)=O", "note": "[Etelcalcetide]", "values": [{"measurement": "cognitive declines, Y-maze Spont Alt index", "setting": "18 MOA male C57/B6 mice", "value": "partially prevented"}, {"measurement": "early cognitive declines, Y-maze Spont Alt index", "setting": "APP^NL-G-F mice", "value": "partially prevented"}, {"measurement": "reduction of sPTH", "setting": "serum PTH (sPTH)", "value": "> 80", "unit": "%"}]}, {"compound": "COC(=O)[C@@]1(O)C[C@H]2O[C@]1(C)n1c3ccccc3c3c4c(c5c6ccccc6n2c5c31)C(=O)NC4", "note": "[K252a]", "values": [{"measurement": "ability of Aβ1-42 to stimulate PTH secretion", "setting": "Tau phosphorylation", "value": "blocked"}]}, {"compound": "Aβ1-42: b-amyloid (Ab1-42), derivative of amyloid precursor protein, added exogenously to PTG cultures", "values": [{"measurement": "stimulation of tonic PTH secretion", "setting": "murine PTGs; exogenous Aβ1-42 0.3 to 1000 nM, concentration-dependent, vs control", "value": "up to 1.6 fold"}, {"measurement": "stimulatory effect on PTH secretion in PTGs lacking either CaSR or GABAB1R", "setting": "murine PTGs; murine PTGs lacking either CaSR or GABAB1R", "value": "absent"}, {"measurement": "Ca^2+-set point", "setting": "murine PTGs; murine and human PTGs, Aβ1-42 0.3 to 1000 nM", "value": "without shifting"}, {"measurement": "stimulation of tonic PTH secretion", "setting": "human PTGs", "value": "≤ 1.9", "unit": "fold"}, {"measurement": "cAMP production", "setting": "[1]", "value": "stimulating cAMP production"}]}]}
